# In patent US6489292B1, “Stable aqueous insulin preparations without phenol and cresol” (Novo Nordisk A/S, priority 1998, dated 2002):
# Legend:
# human insulin [1] = molecular target: T1, human insulin (Homo sapiens, UniProt P01308); test: Physical stability of insulin solution at 5° C. by visual inspection for precipitation; type: physicochemical; settings: 0.5 Zn2+/insulin, NaCl 15 mM, glycylglycine 7 mM, tween 20 0.01%, pH 7.5
# T1 construct: Insulin derivatives having truncations in the C-terminal of the B-chain; deamidations at A18, A21 and B3
# T1 sequence (P01308 25-54 limits assumed): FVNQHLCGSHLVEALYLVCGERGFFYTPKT
# T1 sequence (P01308 90-110 limits assumed): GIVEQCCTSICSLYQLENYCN
# Procedure: (§1) 27.5 ml of a 21 mM insulin stock solution was made by dissolving 3.707 g zinc free human insulin in 14 ml water and adding 2888 μl of 0.1 M ZnCl2 and 7 ml water before adjusting pH to 7.5 by 0.2 M NaOH and finally adding water to 27.5 ml, calculating the specific volume of insulin as 0.7 μl/mg. The stock solution was filtrated. A preparation of 3.5 ml 15 mM insulin was then made by adding 23 μl 2.3 M stabiliser in ethanol, 49 μl 0.5 M glycylglycine and 35 μl 1% Tween 20 and water to 3.5 ml. The solution was thereafter diluted with medium containing sodium chloride 15 mM, glycylglycine 7 mM, Tween 20 0.01%, pH 7.5 to 12, 9, 6, 3 and 0.6 mM insulin and stored at 5° C. for visual inspection. The reference solution was made by the same way but without adding a stabiliser. The chemical stability of the insulin solutions were followed at 37° C. for two concentrations, 3 and 15 mM, by determination of covalent insulin polymer by size exclusion chromatography. […] Detection was performed with a tunable absorbance detector (Waters 486) at 276 nm. Injection volume were […] for 3 and 15 mM insulin solutions, respectively.
# (§2) 3.26 g human insulin (0.4 equivalent Zn^2+ per insulin) was dispersed in water in 18 ml water on icebath and added 490 μl 0.5 M glycylglycine and 1628 μl sodium hydroxide (3.1 equivalent) and stirred slowly overnight at 5° C. 613 μl 0.1 M zinc chloride (0.1 equivalent of zinc) was then added the solution, pH adjusted to 7.5 by 410 μl 1 M hydrochloric acid (0.8 equivalent of chloride) and the volume adjusted to 25 ml by water. Finally the stock solution of 21 mM insulin was filtrated. 3.57 ml of the stock solution was added 50 μl 1% tween 20, 750 μl 0.1 M stabiliser and 630 μl water to obtain 5 ml 15 mM insulin formulation. Finally the preparation was diluted with medium containing sodium chloride, glycylglycine and detergent to obtain 12, 9, 6, and 3 mM of human insulin and stored at 5° C. for visual inspection. The chemical stability of 3 and 15 mM insulin solutions were followed at 37° C. by determination of covalent insulin polymer by size exclusion chromatography.
# human insulin [2] = molecular target: T1, human insulin; test: Chemical stability at 37° C.: covalent insulin polymer by size exclusion chromatography; type: physicochemical; settings: stabiliser equimolar to insulin, 0.5 Zn2+/insulin, NaCl 15 mM, glycylglycine 7 mM, tween 20 0.01%, pH 7.5
# Procedure: as §1, §2
# [3] = example 1, stabiliser equimolar to insulin
# [4] = example 2, stabiliser equimolar to insulin
"Physical stability of solution at 4 weeks and 5° C.: maximal insulin concentration at which the solution was without precipitation up to 15 mM (3, 6, 9, 12, 15 mM) (human insulin [1]; [3]) [mM]","Physical stability of solution at 4 weeks and 5° C.: maximal insulin concentration at which the solution was without precipitation up to 15 mM (3, 6, 9, 12, 15 mM) (human insulin [1]; [4]) [mM]","Chemical stability at 37° C. (% polymer/week), insulin solution of 3 mM (human insulin [2]; example 2, 3 mM insulin) [% polymer/week]","Chemical stability at 37° C. (% polymer/week), insulin solution of 15 mM (human insulin [2]; example 2, 15 mM insulin) [% polymer/week]",SMILES,"Chemical stability at 37° C. (% polymer/week), insulin solution of 3 mM (human insulin [2]; example 1, 3 mM insulin) [% polymer/week]","Chemical stability at 37° C. (% polymer/week), insulin solution of 15 mM (human insulin [2]; example 1, 15 mM insulin) [% polymer/week]"
15,–,–,–,CC1(C)[C@H]2CC[C@H](CO)[C@@H]1C2 (relative stereo) [(−)-trans-myrtanol],–,–
9,–,–,–,"CC1(C)C2CCC1(C)C(O)C2 (single isomer, unassigned; (+)) [(+)-borneol]",0.47,0.61
12,–,–,–,C[C@@H]1[C@@H](O)C[C@H]2C[C@@H]1C2(C)C [(+)-isopinocampheol],–,–
9,–,–,–,"CC1(C)C2CCC1(C)C(O)C2 (single isomer, unassigned; (-)) [(−)-borneol]",0.43,0.47
15,–,–,–,"CC1C(O)CC2CC1C2(C)C (single isomer, unassigned; (-)) [(−)-isopinocampheol]",–,–

# Further lines, the compound ahead of its results:
SMILES,"Physical stability of solution at 4 weeks and 5° C.: maximal insulin concentration at which the solution was without precipitation up to 15 mM (3, 6, 9, 12, 15 mM) (human insulin [1]; [3]) [mM]","Physical stability of solution at 4 weeks and 5° C.: maximal insulin concentration at which the solution was without precipitation up to 15 mM (3, 6, 9, 12, 15 mM) (human insulin [1]; [4]) [mM]","Chemical stability at 37° C. (% polymer/week), insulin solution of 3 mM (human insulin [2]; example 2, 3 mM insulin) [% polymer/week]","Chemical stability at 37° C. (% polymer/week), insulin solution of 15 mM (human insulin [2]; example 2, 15 mM insulin) [% polymer/week]","Chemical stability at 37° C. (% polymer/week), insulin solution of 3 mM (human insulin [2]; example 1, 3 mM insulin) [% polymer/week]","Chemical stability at 37° C. (% polymer/week), insulin solution of 15 mM (human insulin [2]; example 1, 15 mM insulin) [% polymer/week]"
Oc1ccccc1 [phenol],15,15,0.32,0.29,0.37,0.39
Nc1ncnc2nc[nH]c12 [adenine],–,9,0.59,0.77,–,–
CC1(C)[C@H]2CC[C@](C)(C2)[C@H]1O [(+)-fenchol],15,–,–,–,0.50,0.97
c1ncc2[nH]cnc2n1 [purine],–,15,0.58,0.71,–,–
